What follows are compounds tested on GBM8 cells (human glioblastoma neurosphere cell culture) (assay: GBM8 viability assay (Cell Titer Glo luminescence, 3 days)). Details: 72 h, 3 days incubation.
Format: cell-based
Description: Example 283: GBM4 and GBM8 Viability Assay
Cell culture medium was prepared from a NSA proliferation kit (Neurocult) and NeuroCult supplements (Stemcell Tech Cat. #05751) and treated with 20 μL of 10 μg/mL rh EGF, 10 μL of 10 μg/mL rh bFGF and 10 μL of 0.2% Heparin. In this medium, human glioblastoma cells were cultured in ultra-low attachment tissue culture flasks until 1×10^6 cells ml was achieved (GBM4 and GBM8 are distinct neurosphere cell cultures derived from these human patient tissues). GBM4 and GBM8 cells were dissociated and 10 mL of media containing 4000 human glioblastoma cells per 90 uL were transferred to an ultra-low binding 96-well plate and incubated at 37° C. overnight. On the following day, 10 μL of a 1% DMSO solution of test compound in assay medium was added to wells containing the cell suspension and the mixture incubated at 37° C. for 3 days. At this time, the plate was removed from the incubator and allowed to reach room temperature. After about 30 minutes, 50 μL of Cell Titer Glo solution was added to each well and the plate shaken for 1 minute at low speed. After 10 minutes luminescence was recorded using a Tecan Safire2 reader.
Reduction in luminescence compared to DMSO only control wells was used to determine the percentage inhibition of cell growth. IC50s were calculated using the % inhibition of luminescence for serial dilutions of compounds fitted to a 4-parameter fit within the Prism (San Diego) curve fitting program.
Compound `Cc1cc(NCC(C)O)nc(NC(=O)Nc2ccc(OC(F)(F)F)cc2)n1` (stereo not shown) [Compound 95] has an IC50 of less than 1000 nM. In the case of `Cc1cc(NCC(O)CO)nc(NC(=O)Nc2ccc(OC(F)(F)F)cc2)n1` (stereo not shown) [Compound 96], the IC50 is reported as less than 1000 nM. For `CNCCNc1cc(C)nc(NC(=O)Nc2ccc(OC(F)(F)F)cc2)n1` [Compound 98, 1-(4-methyl-6-((2-(methylamino)ethyl)amino)pyrimidin-2-yl)-3-(4-(trifluoromethoxy)phenyl)urea], the IC50 was less than 1000 nM. `CNCCCNc1cc(C)nc(NC(=O)Nc2ccc(OC(F)(F)F)cc2)n1` [Compound 99, 1-[4-Methyl-6-(3-methylamino-propylamino)-pyrimidin-2-yl]-3-(4-trifluoromethoxy-phenyl)-urea] gave an IC50 of less than 1000 nM. In the case of `Cc1cc(NCCCN(C)C)nc(NC(=O)Nc2ccc(F)c(C(F)(F)F)c2)n1` [Compound 101, 3-(dimethylamino)-1-(2-{3-[4-fluoro-3-(trifluoromethyl)phenyl]ureido}-6-methyl-4-pyrimidinylamino)propane], the IC50 is reported as less than 1000 nM. Work on `Cc1cc(NCCCO)nc(NC(=O)Nc2ccc(F)c(C(F)(F)F)c2)n1` [Compound 102, 1-(4-fluoro-3-(trifluoromethyl)phenyl)-3-(4-((3-hydroxypropyl)amino)-6-methylpyrimidin-2-yl)urea] yielded an IC50 of less than 1000 nM. With `Cc1cc(NCCN(C)C)nc(NC(=O)Nc2ccc(F)c(C(F)(F)F)c2)n1` [Compound 103, 1-(4-fluoro-3-(trifluoromethyl)phenyl)-3-(4-((2-(dimethylamino)ethyl)amino)-6-methylpyrimidin-2-yl)urea] the IC50 was less than 1000 nM. `Cc1cc(NCCCCN(C)C)nc(NC(=O)Nc2ccc(F)c(C(F)(F)F)c2)n1` [Compound 104] gave an IC50 of less than 1000 nM. `Cc1cc(NCCO)nc(NC(=O)Nc2ccc(F)c(C(F)(F)F)c2)n1` [Compound 105] gave an IC50 of less than 1000 nM. `Cc1cc(NCCCCO)nc(NC(=O)Nc2ccc(F)c(C(F)(F)F)c2)n1` [Compound 106] gave an IC50 of less than 1000 nM. Compound `Cc1cc(NCCOCCO)nc(NC(=O)Nc2ccc(F)c(C(F)(F)F)c2)n1` [Compound 107] has an IC50 of less than 1000 nM. Compound `Cc1cc(NCC(O)CO)nc(NC(=O)Nc2ccc(F)c(C(F)(F)F)c2)n1` (stereo not shown) [Compound 108] has an IC50 of less than 1000 nM. `Cc1cc(NCCN)nc(NC(=O)Nc2ccc(F)c(C(F)(F)F)c2)n1` [Compound 110] gave an IC50 of less than 1000 nM. With `Cc1cc(NCCCN)nc(NC(=O)Nc2ccc(F)c(C(F)(F)F)c2)n1` [Compound 111] the IC50 was less than 1000 nM. `Cc1cc(NCCCCN)nc(NC(=O)Nc2ccc(F)c(C(F)(F)F)c2)n1` [Compound 112] was tested, and the IC50 was less than 1000 nM. For `CNCCCN(C)c1cc(C)nc(NC(=O)Nc2ccc(F)c(C(F)(F)F)c2)n1` [Compound 113], the IC50 was 1000 to 10000 nM. In the case of `Cc1cc(NCCCc2cnc[nH]2)nc(NC(=O)Nc2ccc(F)c(C(F)(F)F)c2)n1` [Compound 115], the IC50 is reported as less than 1000 nM. `Cc1cc(NCCC(N)=O)nc(NC(=O)Nc2ccc(F)c(C(F)(F)F)c2)n1` [Compound 116] was tested, and the IC50 was less than 1000 nM. `CCNc1cc(C)nc(NC(=O)Nc2ccc(F)c(C(F)(F)F)c2)n1` [Compound 117] showed an IC50 of less than 1000 nM. Compound `CNCCNc1cc(C)nc(NC(=O)Nc2ccc(F)c(C(F)(F)F)c2)n1` [Compound 120, 1-(4-fluoro-3-(trifluoromethyl)phenyl)-3-(4-methyl-6-((2-(methylamino)ethyl)amino)pyrimidin-2-yl)urea] has an IC50 of less than 1000 nM. In the case of `CNCCCNc1cc(C)nc(NC(=O)Nc2ccc(F)c(C(F)(F)F)c2)n1` [Compound 121], the IC50 is reported as less than 1000 nM. `Cc1cc(NCC2CCCNC2)nc(NC(=O)Nc2ccc(F)c(C(F)(F)F)c2)n1` (stereo not shown) [Compound 122] showed an IC50 of less than 1000 nM. `Cc1cc(NC2CCNC2)nc(NC(=O)Nc2ccc(F)c(C(F)(F)F)c2)n1` (stereo not shown) [Compound 123] gave an IC50 of less than 1000 nM. Compound `COc1ccc(NC(=O)Nc2nc(C)cc(NCCCN(C)C)n2)cc1` [Compound 125] has an IC50 of less than 1000 nM. In the case of `COc1ccc(NC(=O)Nc2nc(C)cc(NCCCCO)n2)cc1` [Compound 126], the IC50 is reported as less than 1000 nM. `COc1ccc(NC(=O)Nc2nc(C)cc(NCCN)n2)cc1` [Compound 127] was tested, and the IC50 was less than 1000 nM. In the case of `CCCNc1cc(C)nc(NC(=O)Nc2ccc(OC)cc2)n1` [Compound 128], the IC50 is reported as less than 1000 nM. Compound `CCCCNc1cc(C)nc(NC(=O)Nc2ccc(OC)cc2)n1` [Compound 129] has an IC50 of less than 1000 nM. `COc1ccc(NC(=O)Nc2nc(C)cc(NCCO)n2)cc1` [Compound 130] was tested, and the IC50 was less than 1000 nM. Compound `COc1ccc(NC(=O)Nc2nc(C)cc(NCCCN)n2)cc1` [Compound 131] has an IC50 of less than 1000 nM. `COc1ccc(NC(=O)Nc2nc(C)cc(NCCOCCO)n2)cc1` [Compound 132] was tested, and the IC50 was less than 1000 nM. Compound `COc1ccc(NC(=O)Nc2nc(C)cc(NCC(C)O)n2)cc1` (stereo not shown) [Compound 133] has an IC50 of less than 1000 nM. In the case of `COc1ccc(NC(=O)Nc2nc(C)cc(NCCc3ccccn3)n2)cc1` [Compound 134], the IC50 is reported as 1000 to 10000 nM. In the case of `COc1ccc(NC(=O)Nc2nc(C)cc(NCC(O)CO)n2)cc1` (stereo not shown) [Compound 135], the IC50 is reported as less than 1000 nM. Work on `COc1ccc(NC(=O)Nc2nc(C)cc(NCCCCN)n2)cc1` [Compound 137] yielded an IC50 of less than 1000 nM. `COc1ccc(NC(=O)Nc2nc(C)cc(NCCN(C)C)n2)cc1` [Compound 138] showed an IC50 of less than 1000 nM. `CCNc1cc(C)nc(NC(=O)Nc2ccc(OC)cc2)n1` [Compound 139] was tested, and the IC50 was less than 1000 nM. For `COc1cccc(NC(=O)Nc2nc(C)cc(NCCCN(C)C)n2)c1` [Compound 141], the IC50 was 1000 to 10000 nM. `COc1cccc(NC(=O)Nc2nc(C)cc(NCCCCN)n2)c1` [Compound 142] showed an IC50 of 1000 to 10000 nM. `COc1cccc(NC(=O)Nc2nc(C)cc(NCCCN)n2)c1` [Compound 143] was tested, and the IC50 was 1000 to 10000 nM. `COc1cccc(NC(=O)Nc2nc(C)cc(NCCN)n2)c1` [Compound 144] gave an IC50 of 1000 to 10000 nM. `COc1cccc(NC(=O)Nc2nc(C)cc(NCCN(C)C)n2)c1` [Compound 145] gave an IC50 of 1000 to 10000 nM. For `COc1cccc(NC(=O)Nc2nc(C)cc(NCCCCO)n2)c1` [Compound 146], the IC50 was 1000 to 10000 nM. Work on `COc1cccc(NC(=O)Nc2nc(C)cc(NCC(C)O)n2)c1` (stereo not shown) [Compound 147] yielded an IC50 of 1000 to 10000 nM. Work on `COc1cccc(NC(=O)Nc2nc(C)cc(NCCCCN(C)C)n2)c1` [Compound 148] yielded an IC50 of 1000 to 10000 nM. Compound `COc1cccc(NC(=O)Nc2nc(C)cc(NCCCc3ncc[nH]3)n2)c1` [Compound 149] has an IC50 of 1000 to 10000 nM. Work on `COc1cccc(NC(=O)Nc2nc(C)cc(NCC(O)CO)n2)c1` (stereo not shown) [Compound 151] yielded an IC50 of 1000 to 10000 nM. `CNCCNc1cc(C)nc(NC(=O)Nc2cccc(OC)c2)n1` [Compound 153, 1-(3-methoxyphenyl)-3-(4-methyl-6-((2-(methylamino)ethyl)amino)pyrimidin-2-yl)urea] was tested, and the IC50 was 1000 to 10000 nM. Compound `CNCCCCNc1cc(C)nc(NC(=O)Nc2cccc(OC)c2)n1` [Compound 154] has an IC50 of 1000 to 10000 nM. Work on `COc1cccc(NC(=O)Nc2nc(C)cc(NCC3CCCNC3)n2)c1` (stereo not shown) [Compound 155] yielded an IC50 of 1000 to 10000 nM. Compound `Cc1cc(NCCCN(C)C)nc(NC(=O)Nc2ccc(F)c(Cl)c2)n1` [Compound 157, 1-(3-chloro-4-fluorophenyl)-3-(4-((3-(dimethylamino)propyl)amino)-6-methylpyrimidin-2-yl)urea] has an IC50 of less than 1000 nM. `Cc1cc(NCCCN)nc(NC(=O)Nc2ccc(F)c(Cl)c2)n1` [Compound 158, 1-(4-((3-aminopropyl)amino)-6-methylpyrimidin-2-yl)-3-(3-chloro-4-fluorophenyl)urea] was tested, and the IC50 was less than 1000 nM. `Cc1cc(NCCN(C)C)nc(NC(=O)Nc2ccc(F)c(Cl)c2)n1` [Compound 159] was tested, and the IC50 was 1000 to 10000 nM. `Cc1cc(NCCCCN)nc(NC(=O)Nc2ccc(F)c(Cl)c2)n1` [Compound 160] gave an IC50 of less than 1000 nM. Compound `Cc1cc(NCCO)nc(NC(=O)Nc2ccc(F)c(Cl)c2)n1` [Compound 161] has an IC50 of less than 1000 nM.
